Data as given in patent US9493461B2, “Tetracyclic heterocycle compounds and methods of use thereof for the treatment of hepatitis C” (priority 2013, dated 2016).

How the values were obtained:
[1] = system: HCV replicon genotype 1b; test: HCV replicon assay, genotype 1b (cell ELISA for replicon-encoded NS3/4A); format: cell-based, hepatitis C virus (HCV); settings: Hepatitis C virus, 96 h, read-out: 1b IC50 (nM), genotype 1b replicon cells, 96 hours incubation, NS3/4A ELISA readout, % of DMSO control
In short: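 Genotype 1b replicon cells (neomycin-selected, G418 removed for assay) incubated 96 h with compound dilution series. Replication measured by cell ELISA for replicon-encoded NS3/4A after lysis; IC50 from four-parameter fit relative to DMSO control.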

[2] = system: HCV replicon genotype 1a; test: HCV replicon assay, genotype 1a (cell ELISA for replicon-encoded NS3/4A); format: cell-based, hepatitis C virus (HCV); settings: Hepatitis C virus, 96 h, read-out: 1a IC50 (nM), genotype 1a replicon cells, 96 hours incubation, NS3/4A ELISA readout, % of DMSO control
In short: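 Stable G418-selected neomycin-resistant HCV replicon cells were plated with serially diluted compound without G418 and incubated 96 h. After washing and lysis, replicon RNA was measured indirectly by cell ELISA for replicon-encoded NS3/4A; IC50 from four-parameter fit relative to DMSO control.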

`CNC(=O)c1c(-c2ccc(F)cc2)oc2cc(N(C)S(C)(=O)=O)c(-c3ccc4c(n3)-c3cc5c(F)cccc5n3CN4CC(=O)OC)cc12` [Example 69, methyl 2-(11-fluoro-2-(2-(4-fluorophenyl)-3-(methylcarbamoyl)-6-(N-methylmethylsulfonamido)benzofuran-5-yl)pyrido[3′,2′:4,5]pyrimido[1,6-a]indol-5(6H)-yl)acetate] showed an IC50 [1] of 6.04 nM and an IC50 [2] of 9.69 nM.
`CNC(=O)c1c(-c2ccc(F)cc2)oc2cc(N(C)S(C)(=O)=O)c(-c3ccc4c(n3)-c3cc5c(F)cccc5n3CN4CC(=O)O)cc12` [Example 70, 2-(11-fluoro-2-(2-(4-fluorophenyl)-3-(methylcarbamoyl)-6-(N-methylmethylsulfonamido)benzofuran-5-yl)pyrido[3′,2′:4,5]pyrimido[1,6-a]indol-5(6H)-yl)acetic acid] gave an IC50 [1] of 26.8 nM and an IC50 [2] of 35.2 nM.
Work on `CNC(=O)c1c(-c2ccc(F)cc2)oc2cc(N(C)S(C)(=O)=O)c(-c3ccc4c(n3)-c3cc5c(F)cccc5n3C(CC(=O)OC)N4)cc12` (stereo not shown) [Example 71, methyl 2-(11-fluoro-2-(2-(4-fluorophenyl)-3-(methylcarbamoyl)-6-(N-methylmethylsulfonamido)benzofuran-5-yl)-5,6-dihydropyrido[3′,2′:4,5]pyrimido[1,6-a]indol-6-yl)acetate] yielded an IC50 [1] of 3.44 nM and an IC50 [2] of 2.98 nM.
For `CNC(=O)c1c(-c2ccc(F)cc2)oc2cc(N(C)S(C)(=O)=O)c(-c3ccc4c(n3)-c3cc5c(F)cccc5n3C(CC(=O)O)N4)cc12` (stereo not shown) [Example 72, 2-(11-fluoro-2-(2-(4-fluorophenyl)-3-(methylcarbamoyl)-6-(N-methylmethylsulfonamido)benzofuran-5-yl)-5,6-dihydropyrido[3′,2′:4,5]pyrimido[1,6-a]indol-6-yl)acetic acid], the IC50 [1] was 15.6 nM and the IC50 [2] was 22.8 nM.
In the case of `CNC(=O)c1c(-c2ccc(F)cc2)oc2cc(N(C)S(C)(=O)=O)c(-c3cc4c(cn3)ncn3c5cccc(F)c5cc43)cc12` [Example 74, 2-(4-fluorophenyl)-5-(11-fluoropyrido[3′,4′:4,5]pyrimido[1,6-a]indol-2-yl)-N-methyl-6-(N-methylmethylsulfonamido)benzofuran-3-carboxamide], the IC50 [1] is reported as 3.07 nM and the IC50 [2] is reported as 1.21 nM.
`CNC(=O)c1c(-c2ccc(F)cc2F)oc2cc(N(C)S(C)(=O)=O)c(-c3cc4c(cn3)ncn3c5cccc(F)c5cc43)cc12` [Example 75] was tested, and the IC50 [1] was 2.78 nM and the IC50 [2] was 1.03 nM.
`CNC(=O)c1c(-c2ccc(F)cc2)oc2cc(N(C)S(C)(=O)=O)c(-c3ccc4nc(CN5CC(F)C5)n5c6cccc(F)c6cc5c4n3)cc12` [Example 76, 3-fluoro-1-((11-fluoro-2-(2-(4-fluorophenyl)-3-(methylcarbamoyl)-6-(N-methylmethylsulfonamido)benzofuran-5-yl)pyrido[3′,2′:4,5]pyrimido[1,6-a]indol-6-yl)methyl)azetidin-1-ium methanesulfonate] was tested, and the IC50 [1] was 3.78 nM and the IC50 [2] was 4.13 nM.
In the case of `CNC(=O)c1c(-c2ccc(F)cc2)oc2cc(N(C)S(C)(=O)=O)c(-c3ccc4nc(CN5CC(O)C5)n5c6cccc(F)c6cc5c4n3)cc12` [Example 77], the IC50 [1] is reported as 5.61 nM and the IC50 [2] is reported as 5.26 nM.
Compound `CNC(=O)c1c(-c2ccc(F)cc2)oc2cc(N(C)S(C)(=O)=O)c(-c3ccc4nc(CN5CC(C)(O)C5)n5c6cccc(F)c6cc5c4n3)cc12` [Example 78] has an IC50 [1] of 3.34 nM and an IC50 [2] of 2.8 nM.
With `CNC(=O)c1c(-c2ccc(F)cc2)oc2cc(N(C)S(C)(=O)=O)c(-c3ccc4nc(CN5CC6(CCOCC6)C5)n5c6cccc(F)c6cc5c4n3)cc12` [Example 79] the IC50 [1] was 3.99 nM and the IC50 [2] was 2.37 nM.
With `CNC(=O)c1c(-c2ccc(F)cc2)oc2cc(N(C)S(C)(=O)=O)c(-c3ccc4nc(CN5CC(F)(F)C5)n5c6cccc(F)c6cc5c4n3)cc12` [Example 80] the IC50 [1] was 2.46 nM and the IC50 [2] was 2.65 nM.
`CNC(=O)c1c(-c2ccc(F)cc2)oc2cc(N(C)S(C)(=O)=O)c(-c3ccc4nc(CN5CC(C)(F)C5)n5c6cccc(F)c6cc5c4n3)cc12` [Example 81] was tested, and the IC50 [1] was 3.28 nM and the IC50 [2] was 3.24 nM.
`CNC(=O)c1c(-c2ccc(F)cc2)oc2cc(N(C)S(C)(=O)=O)c(-c3ccc4nc(CN5CCC(F)(F)C5)n5c6cccc(F)c6cc5c4n3)cc12` [Example 82] gave an IC50 [1] of 2.45 nM and an IC50 [2] of 2.74 nM.
`CNC(=O)c1c(-c2ccc(F)cc2)oc2cc(N(C)S(C)(=O)=O)c(-c3ccc4nc(CN5CC[C@H](O)C5)n5c6cccc(F)c6cc5c4n3)cc12` [Example 83] gave an IC50 [1] of 1.31 nM and an IC50 [2] of 1.33 nM.
With `CNC(=O)c1c(-c2ccc(F)cc2)oc2cc(N(C)S(C)(=O)=O)c(-c3ccc4nc(CN5CCC5)n5c6cccc(F)c6cc5c4n3)cc12` [Example 84] the IC50 [1] was 1.96 nM and the IC50 [2] was 1.34 nM.
`CNC(=O)c1c(-c2ccc(F)cc2)oc2cc(N(C)S(C)(=O)=O)c(-c3ccc4nc(CN5CC[C@@H](F)C5)n5c6cccc(F)c6cc5c4n3)cc12` [Example 85] was tested, and the IC50 [1] was 2.34 nM and the IC50 [2] was 1.76 nM.
Work on `CNC(=O)c1c(-c2ccc(F)cc2)oc2cc(N(C)S(C)(=O)=O)c(-c3ccc4nc(CN5CC[C@H](F)C5)n5c6cccc(F)c6cc5c4n3)cc12` [Example 86] yielded an IC50 [1] of 2.66 nM and an IC50 [2] of 1.99 nM.
Work on `CNC(=O)c1c(-c2ccc(F)cc2)oc2cc(N(C)S(C)(=O)=O)c(-c3ccc4nc(CN5CC[C@@H](O)C5)n5c6cccc(F)c6cc5c4n3)cc12` [Example 87] yielded an IC50 [1] of 1.26 nM and an IC50 [2] of 1.28 nM.
`CNC(=O)c1c(-c2ccc(F)cc2)oc2cc(N(C)S(C)(=O)=O)c(-c3ccc4nc(CN5CC(OC)C5)n5c6cccc(F)c6cc5c4n3)cc12` [Example 88] was tested, and the IC50 [1] was 4.22 nM and the IC50 [2] was 4.09 nM.
In the case of `CNC(=O)c1c(-c2ccc(F)cc2)oc2cc(N(C)S(C)(=O)=O)c(-c3ccc4nc(CN5CC(C)(C#N)C5)n5c6cccc(F)c6cc5c4n3)cc12` [Example 89], the IC50 [1] is reported as 3.45 nM and the IC50 [2] is reported as 3.41 nM.
In the case of `CNC(=O)c1c(-c2ccc(F)cc2)oc2cc(N(C)S(C)(=O)=O)c(-c3ccc4nc(CN5CCOCC5)n5c6cccc(F)c6cc5c4n3)cc12` [Example 90], the IC50 [1] is reported as 3.66 nM and the IC50 [2] is reported as 3.62 nM.
`CNC(=O)c1c(-c2ccc(F)cc2)oc2cc(N(C)S(C)(=O)=O)c(-c3ccc4nc(CN5CC[C@H](OC)C5)n5c6cccc(F)c6cc5c4n3)cc12` [Example 91] was tested, and the IC50 [1] was 6.54 nM and the IC50 [2] was 3.58 nM.
For `CNC(=O)c1c(-c2ccc(F)cc2)oc2cc(N(C)S(C)(=O)=O)c(-c3ccc4nc(CN5CCC(F)(F)CC5)n5c6cccc(F)c6cc5c4n3)cc12` [Example 92], the IC50 [1] was 23.7 nM and the IC50 [2] was 14.6 nM.
In the case of `CNC(=O)c1c(-c2ccc(F)cc2)oc2cc(N(C)S(C)(=O)=O)c(-c3ccc4nc(CN5CCC(C)(O)CC5)n5c6cccc(F)c6cc5c4n3)cc12` [Example 93], the IC50 [1] is reported as 7.78 nM and the IC50 [2] is reported as 4.19 nM.
`CNC(=O)c1c(-c2ccc(F)cc2)oc2cc(N(C)S(C)(=O)=O)c(-c3ccc4nc(CN5CC(O)(C(F)(F)F)C5)n5c6cccc(F)c6cc5c4n3)cc12` [Example 94] showed an IC50 [1] of 6.98 nM and an IC50 [2] of 4.33 nM.
`CNC(=O)c1c(-c2ccc(F)cc2)oc2cc(N(C)S(C)(=O)=O)c(-c3ccc4nc(CN5CC(O)(C6CC6)C5)n5c6cccc(F)c6cc5c4n3)cc12` [Example 95] showed an IC50 [1] of 9.12 nM and an IC50 [2] of 4.55 nM.
`CNC(=O)c1c(-c2ccc(F)cc2)oc2cc(N(C)S(C)(=O)=O)c(-c3ccc4nc(CN5[C@H](C)COC[C@@H]5C)n5c6cccc(F)c6cc5c4n3)cc12` [Example 96] was tested, and the IC50 [1] was 11.2 nM and the IC50 [2] was 7.76 nM.
In the case of `CNC(=O)c1c(-c2ccc(F)cc2)oc2cc(N(C)S(C)(=O)=O)c(-c3ccc4nc(CN5CC(C(C)(C)O)C5)n5c6cccc(F)c6cc5c4n3)cc12` [Example 97], the IC50 [1] is reported as 3.49 nM and the IC50 [2] is reported as 2.98 nM.
In the case of `CNC(=O)c1c(-c2ccc(F)cc2)oc2cc(N(C)S(C)(=O)=O)c(-c3ccc4nc(CN5CCN6C(=O)OCC6C5)n5c6cccc(F)c6cc5c4n3)cc12` (stereo not shown) [Example 98], the IC50 [1] is reported as 4.16 nM and the IC50 [2] is reported as 4.79 nM.
For `CNC(=O)c1c(-c2ccc(F)cc2)oc2cc(N(C)S(C)(=O)=O)c(-c3ccc4nc(CN5CCC5(C)C)n5c6cccc(F)c6cc5c4n3)cc12` [Example 99], the IC50 [1] was 5.76 nM and the IC50 [2] was 3.32 nM.
`CNC(=O)c1c(-c2ccc(F)cc2)oc2cc(N(C)S(C)(=O)=O)c(-c3ccc4nc(CN5CC[C@@H](OC)C5)n5c6cccc(F)c6cc5c4n3)cc12` [Example 100] showed an IC50 [1] of 4.46 nM and an IC50 [2] of 2.6 nM.
Work on `CNC(=O)c1c(-c2ccc(F)cc2)oc2cc(N(C)S(C)(=O)=O)c(-c3ccc4nc(CN5C[C@H](F)[C@@H](F)C5)n5c6cccc(F)c6cc5c4n3)cc12` [Example 101] yielded an IC50 [1] of 4.24 nM and an IC50 [2] of 3.13 nM.
For `CNC(=O)c1c(-c2ccc(F)cc2)oc2cc(N(C)S(C)(=O)=O)c(-c3ccc4nc(CN5CC6CC6C5)n5c6cccc(F)c6cc5c4n3)cc12` (stereo not shown) [Example 102], the IC50 [1] was 11.8 nM and the IC50 [2] was 7.03 nM.
For `CNC(=O)c1c(-c2ccc(F)cc2)oc2cc(N(C)S(C)(=O)=O)c(-c3ccc4nc(CN5CC(C)C5)n5c6cccc(F)c6cc5c4n3)cc12` [Example 103], the IC50 [1] was 5.27 nM and the IC50 [2] was 2.05 nM.
Work on `CNC(=O)c1c(-c2ccc(F)cc2)oc2cc(N(C)S(C)(=O)=O)c(-c3ccc4nc(CN5CC(C)(OC)C5)n5c6cccc(F)c6cc5c4n3)cc12` [Example 104] yielded an IC50 [1] of 5.23 nM and an IC50 [2] of 2.31 nM.
`CNC(=O)c1c(-c2ccc(F)cc2)oc2cc(N(C)S(C)(=O)=O)c(-c3ccc4nc(CN5CCN(C(C)=O)CC5)n5c6cccc(F)c6cc5c4n3)cc12` [Example 105] showed an IC50 [1] of 3.79 nM and an IC50 [2] of 2.6 nM.
`CNC(=O)c1c(-c2ccc(F)cc2)oc2cc(N(C)S(C)(=O)=O)c(-c3ccc4nc(CN5CCC(F)(C#N)CC5)n5c6cccc(F)c6cc5c4n3)cc12` [Example 106] showed an IC50 [1] of 8.2 nM and an IC50 [2] of 7.25 nM.
In the case of `CNC(=O)c1c(-c2ccc(F)cc2)oc2cc(N(C)S(C)(=O)=O)c(-c3ccc4nc(CN5CC(S(C)(=O)=O)C5)n5c6cccc(F)c6cc5c4n3)cc12` [Example 107], the IC50 [1] is reported as 3.04 nM and the IC50 [2] is reported as 3.33 nM.
